Test results: publication PMC8286840, “Identifying SARS-CoV-2 antiviral compounds by screening for small molecule inhibitors of Nsp3 papain-like protease” (Biochemical Journal, 2021)
Structures can show the parent of a compound that is named as a salt. Where two headings read alike, the source gives them in different places. Where a SMILES comes first, the peptide text is derived from it. Side-chain parts run from the residue outwards. The star is where a group is joined. Nicotinoyl = O=C(c1cccnc1)*; Cbz = O=C(OCc1ccccc1)*

What was measured:
[1] = target: T1, SARS-CoV-2 PLpro (nsp3 1564–1878) (Severe acute respiratory syndrome coronavirus 2, UniProt P0DTD1); experiment: biochemical; parameters: FRET-quenched peptide (Pro3) cleavage by PLpro, 10 min pre-incubation, slope over 20 min, normalised to no-compound control; settings: low concentration screen, read-out: % of control remaining
[2] = target: T1, SARS-CoV-2 PLpro (nsp3 1564–1878); experiment: biochemical; parameters: FRET-quenched peptide (Pro3) cleavage by PLpro, 10 min pre-incubation, slope over 20 min, normalised to no-compound control; settings: high concentration screen, read-out: % of control remaining

## CCCCCCCCCCCCC/C=C/[C@@H](O)[C@H](CO)NCCCCCCCC [C8 Ceramine]
[1]; Well no.=4409
  remaining activity at 1.25 µM: 101%
[2]; Well no.=4409
  remaining activity at 3.75 µM: 95.2%

## CCCCCCCCCCCCCCC[C@@H](O)[C@H](CO)NC(=O)CCCCCCC [C8 Dihydroceramide]
[1]; Well no.=4395
  remaining activity at 1.25 µM: 99.8%
[2]; Well no.=4395
  remaining activity at 3.75 µM: 99.1%

## CCCCCCCCCCCCC/C=C/[C@@H](O)[C@H](CO)NC(=O)CCCCCCCCCCCCCCC [C16 Ceramide]
[1]; Well no.=4397
  remaining activity at 1.25 µM: 101%
[2]; Well no.=4397
  remaining activity at 3.75 µM: 101%

## CC1=NN(c2ccc(C(=O)O)cc2)C(=O)/C1=C\c1ccc(-c2cc(C)c(C)cc2[N+](=O)[O-])o1 [C646]
[1]; Well no.=5456
  remaining activity at 1.25 µM: 98.3%
[2]; Well no.=5456
  remaining activity at 3.75 µM: 101%

## CCCNC(=O)[C@H]1O[C@@H]1C(=O)N[C@H](C(=O)N1CCC[C@H]1C(=O)OC)[C@@H](C)CC [CA-074 methyl ester]
[1]; Well no.=8166
  remaining activity at 1.25 µM: 105%
[2]; Well no.=8166
  remaining activity at 3.75 µM: 100%

## CCCNC(=O)[C@H]1O[C@@H]1C(=O)N[C@H](C(=O)N1CCC[C@H]1C(=O)O)[C@@H](C)CC [CA-074]
[1]; Well no.=8272
  remaining activity at 1.25 µM: 104%
[2]; Well no.=8272
  remaining activity at 3.75 µM: 101%

## O=C1/C(=C/c2ccc(O)c(Br)c2)CN(Cc2ccccc2)C/C1=C\c1ccc(O)c(Br)c1 [CARM1-IN-1]
[1]; Well no.=8030
  remaining activity at 1.25 µM: 94.4%
[2]; Well no.=8030
  remaining activity at 3.75 µM: 88%

## OCCNC1CCCc2c1[nH]c1ccc(-c3ccccc3)cc21 (stereo not drawn) [CASIN]
[1]; Well no.=7373
  remaining activity at 1.25 µM: 102%
[2]; Well no.=7373
  remaining activity at 3.75 µM: 105%

## CCCCCOc1ccccc1C(O)CC#CCCCC(=O)OC (stereo not drawn) [CAY10514]
[1]; Well no.=4293
  remaining activity at 1.25 µM: 100%
[2]; Well no.=4293
  remaining activity at 3.75 µM: 98.7%

## NC(=O)c1cc(N2CC2)c([N+](=O)[O-])cc1[N+](=O)[O-] [CB 1954]
[1]; Well no.=189
  remaining activity at 1.25 µM: 94.7%
[2]; Well no.=189
  remaining activity at 3.75 µM: 95.5%

## C[C@H](N)C(=O)N1C[C@H](CCCB(O)O)[C@](N)(C(=O)O)C1 [CB-1158 (dihydrochloride)]
[1]; Well no.=8743
  remaining activity at 1.25 µM: 100%
[2]; Well no.=8743
  remaining activity at 3.75 µM: 99.3%

## Nc1ccc(/C=C/c2cccc(C(=O)O)n2)cc1 [CB-7921220]
[1]; Well no.=7759
  remaining activity at 1.25 µM: 103%
[2]; Well no.=7759
  remaining activity at 3.75 µM: 95.7%

## c1cc(OCCN2CCCCC2)cc(-c2n[nH]c3ccc(-c4nnc[nH]4)cc23)c1 [CC-401]
[1]; Well no.=3027
  remaining activity at 1.25 µM: 99.3%
[2]; Well no.=3027
  remaining activity at 3.75 µM: 96.9%

## COc1ccc(N2C(=O)/C(=C\c3ccc([N+](=O)[O-])s3)SC2=S)cc1 [CCF642]
[1]; Well no.=8774
  remaining activity at 1.25 µM: 93.3%
[2]; Well no.=8774
  remaining activity at 3.75 µM: 93.7%

## Cc1ccc(-n2sc(=O)n(Cc3ccc(F)cc3)c2=O)cc1 [CCG 50014]
[1]; Well no.=5215
  remaining activity at 1.25 µM: 105%
[2]; Well no.=5215
  remaining activity at 3.75 µM: 102%

## CC(ONC(=O)c1cc(C(F)(F)F)cc(C(F)(F)F)c1)C(=O)Nc1ccc(Cl)cc1 (stereo not drawn) [CCG-1423]
[1]; Well no.=7811
  remaining activity at 1.25 µM: 99.2%
[2]; Well no.=7811
  remaining activity at 3.75 µM: 101%

## Cc1cccn2c(=O)c(/C=C(\C#N)c3nc4ccccc4s3)c(Oc3ccc(F)cc3)nc12 [CCG-63808]
[1]; Well no.=7037
  remaining activity at 1.25 µM: 102%
[2]; Well no.=7037
  remaining activity at 3.75 µM: 101%

## O=C(Nc1ccc(Cl)cc1)C1CCCN(C(=O)c2cccc(-c3ccco3)c2)C1 (stereo not drawn) [CCG-203971]
[1]; Well no.=6005
  remaining activity at 1.25 µM: 103%
[2]; Well no.=6005
  remaining activity at 3.75 µM: 101%

## CC(=O)C1=C(O)C(=O)N(c2ccc(Cl)cc2F)[C@@H]1C1CCCCC1 [CCR2-RA-[R]]
[1]; Well no.=8118
  remaining activity at 1.25 µM: 100%
[1]; Well no.=8229
  remaining activity at 1.25 µM: 96.6%
[2]; Well no.=8118
  remaining activity at 3.75 µM: 95.9%
[2]; Well no.=8229
  remaining activity at 3.75 µM: 91.4%

## NC(=O)c1cc(-c2ccc(S(=O)(=O)[C@H]3CC[C@H](Nc4ccc(C(F)(F)F)cn4)CC3)cc2)ccn1 [CCR6 inhibitor 1]
[1]; Well no.=8609
  remaining activity at 1.25 µM: 103%
[2]; Well no.=8609
  remaining activity at 3.75 µM: 99%

## NC1(Cc2ccc(Cl)cc2)CCN(c2ncnc3[nH]ccc23)CC1 [CCT128930]
[1]; Well no.=5302
  remaining activity at 1.25 µM: 97.5%
[2]; Well no.=5302
  remaining activity at 3.75 µM: 95.6%

## CN(C)c1ccc(-c2nc3ncc(Cl)c(N4CCN(CC(=O)Nc5nccs5)CC4)c3[nH]2)cc1 [CCT129202]
[1]; Well no.=5253
  remaining activity at 1.25 µM: 88.1%
[2]; Well no.=5253
  remaining activity at 3.75 µM: 93.9%

## Cc1cc(CN2CCN(c3c(Br)cnc4nc(-c5ccc(N6CCN(C)CC6)cc5)[nH]c34)CC2)no1 [CCT137690]
[1]; Well no.=5033
  remaining activity at 1.25 µM: 98%
[2]; Well no.=5033
  remaining activity at 3.75 µM: 99.3%

## NC(=O)c1cc(S(=O)(=O)Nc2ccc3cc(C4CC4)[nH]c3c2)ccc1O [CD73-IN-1]
[1]; Well no.=8325
  remaining activity at 1.25 µM: 95.7%
[2]; Well no.=8325
  remaining activity at 3.75 µM: 94.5%

## CN1CCN(c2cccc(Nc3nc4c(-c5ccc(S(C)(=O)=O)cc5)cccn4n3)c2)CC1 [CEP33779]
[1]; Well no.=5129
  remaining activity at 1.25 µM: 104%
[2]; Well no.=5129
  remaining activity at 3.75 µM: 106%

## COC(=O)[C@H](CCCCn1cccc1CCC(=O)O)NC(=O)CNC(C)=O [CEP dipeptide 1]
[1]; Well no.=8606
  remaining activity at 1.25 µM: 98.6%
[2]; Well no.=8606
  remaining activity at 3.75 µM: 96.4%

## COc1cc2ncnc(Oc3cccc(NC(=O)Nc4cc(C(C)(C)C(F)(F)F)on4)c3)c2cc1OC [CEP-32496]
[1]; Well no.=5362
  remaining activity at 1.25 µM: 100%
[2]; Well no.=5362
  remaining activity at 3.75 µM: 96.8%

## COc1cccc(-c2cn(-c3ccc(CCN4CCC(O)CC4)cc3)c3ncnc(N)c23)c1 [CGP77675]
[1]; Well no.=5466
  remaining activity at 1.25 µM: 93.4%
[2]; Well no.=5466
  remaining activity at 3.75 µM: 99.9%

## Cn1cc(C(F)(F)F)nc1-c1ccc(OCC(O)CNCCOc2ccc(O)c(C(N)=O)c2)cc1 (stereo not drawn) [CGP 20712A methanesulfonate]
[1]; Well no.=585
  remaining activity at 1.25 µM: 105%
[2]; Well no.=585
  remaining activity at 3.75 µM: 106%

## O=C1NC(=O)c2cc(Nc3ccc(F)cc3)c(Nc3ccc(F)cc3)cc21 [CGP 53353 - 5,6-bis[(4-Fluorophenyl)amino]-1H-isoindole-1,3(2H)-dione]
[1]; Well no.=2530
  remaining activity at 1.25 µM: 101%
[2]; Well no.=2530
  remaining activity at 3.75 µM: 102%

## Nc1ncnc2n[nH]c(Nc3ccc(F)cc3)c12 [CGP 57380 - N3-(4-Fluorophenyl)-1H-pyrazolo-[3,4-d]pyrimidine-3,4-diamine]
[1]; Well no.=2624
  remaining activity at 1.25 µM: 92.8%
[2]; Well no.=2624
  remaining activity at 3.75 µM: 92.7%

## CC(C)(CO)Cc1cc(C(C)(C)C)c(O)c(C(C)(C)C)c1 [CGP-7930]
[1]; Well no.=43
  remaining activity at 1.25 µM: 101%
[2]; Well no.=43
  remaining activity at 3.75 µM: 102%

## CC(C)(C=O)Cc1cc(C(C)(C)C)c(O)c(C(C)(C)C)c1 [CGP-13501]
[1]; Well no.=91
  remaining activity at 1.25 µM: 105%
[2]; Well no.=91
  remaining activity at 3.75 µM: 105%

## O=C1CSC(c2ccccc2Cl)c2cc(Cl)ccc2N1 (stereo not drawn) [CGP-37157]
[1]; Well no.=5845
  remaining activity at 1.25 µM: 106%
[2]; Well no.=5845
  remaining activity at 3.75 µM: 106%

## CC[C@H](C)[C@H](NC(=O)[C@@H]1CCCN1C(=O)[C@H](Cc1cnc[nH]1)NC(=O)[C@H](CCCCNC(=O)[C@H](CCCN=C(N)N)NC(=O)OCc1ccccc1)NC(=O)[C@H](Cc1ccc(O)cc1)NC(=O)c1cccnc1)C(=O)O [CGP-42112] (Nicotinoyl-YK([Arg-Cbz])HPI-OH)
[1]; Well no.=7652
  remaining activity at 1.25 µM: 98%
[2]; Well no.=7652
  remaining activity at 3.75 µM: 97.2%
